In patent EP4635954A1, “INDUCER FOR INDUCING MESENCHYMAL-EPITHELIAL TRANSITION AND REPROGRAMMING” (Iregene Therapeutics Co., Ltd, priority 2022, dated 2024):

Biological target: miR-145
Experiment: Isothermal titration calorimetry (ITC), Nano-ITC
Type: binding
Details: Multiple Sites model, 50 µM miR-145 in cell, 500 µM ligand in syringe
Excerpt: Isothermal titration calorimetry (ITC) operates based on the principle of power compensation and allows accurate determination of the enthalpy change associated with molecular interactions across a broad concentration range using a single titration experiment. It measures the heat change upon binding and provides a complete thermodynamic profile of nucleic acid-ligand interactions. Quantitative thermodynamic characterization of the complex is essential for understanding the molecular basis of the interaction between the microRNA miR-145 and the small molecule compound. In this invention, the Nano-ITC calorimeter from Waters Corporation was used to validate in vitro the interaction between nucleic acid and small molecule compounds. The experimental procedure involved placing 300 µL of singlestranded miR-145 solution at a concentration of 50 µM into a temperature-controlled sample cell, which was thermally coupled via a thermocouple circuit to a reference cell containing an equal volume of deionized water. As an example, the small molecule A-3-6 was prepared at a concentration of 500 µM and a volume of 50 µL, and loaded into the injection syringe as the ligand. The heat change in the sample cell was measured and balanced against the reference cell, appearing as either endothermic or exothermic peaks. […]

Kd (site with nSite 1.8): 7.54 nM
Kd (site with nSite 3): 70.2 nM
SMILES: O=C(Cc1ccccc1)Nc1cc2cc[nH]c2cn1 [Compound A-3-6, 2-Phenyl-N-(1H-pyrrolo[2,3-c]pyridin-5-yl)acetamide]
